{
  "source": "patent US20100254940A1",
  "about": "“Compositions and Methods for Regulating an Immune Response in a Subject” (INNATE PHARMA, S.A., priority 2002, published 2010)",
  "key": {"[1]": {"system": "γδ T cell", "experiment": "γδ T cell amplification from human PBMCs, counting γδ T cell using flow cytometry (given as in vivo EC50)", "format": "cell-based", "settings": "γδ T cell amplification from human PBMCs, flow cytometry count", "experimental": "The biological activity of γδ T cell amplification from human PBMCs was assessed by counting γδ T cell using flow cytometry.\nIn vitro proliferation assays and in vitro TNFα release assay are performed essentially as described in Example 3."}, "[2]": {"system": "γδ T cells", "experiment": "Supplementary pharmaco-dynamics studies, consecutive injections of BrHPP in male cynomolgus monkeys", "format": "in vivo", "experimental": "We have thus performed other non-GLP pharmaco-dynamics studies in male cynomolgus monkeys in order to further document the features of in vivo γδ T cells response to consecutive injections of BrHPP, varying either the dose or the time-laps between injections.\nIn vivo amplification was assessed after 4 successive injections of 20 or 80 mg/kg Phosphostim®, 4 or 8 weeks apart."}, "[3]": {"experiment": "Two-phase repeated dose toxicity study in cynomolgus monkeys, i.v. BrHPP", "format": "in vivo", "experimental": "The objective of the first phase of this non GLP study was to determine BrHPP Maximum Tolerated Dose (MTD) in a group of two cynomolgus monkeys (one male, one female) by escalating doses. The second objective of this study was to characterize the toxicity of daily i.v. administration of Phosphostim for two weeks in two cynomolgus monkeys (one male, one female) at the MTD determined during the first phase of the study. The animals were treated at increasing dose-levels every 3 or 4 days (phase 1) and then at the estimated Maximum Tolerated Dose (MTD) daily for 2 weeks (phase 2).\nA total of four cynomolgus monkeys (two males and two females) were divided into 2 groups and treated with BrHPP, by intravenous administration over a 1-hour infusion period as follows:\nGroup 1 (one male and one female) were administered BrHPP and/or Phosphostim (BrHPP, 200 mg) i.v. at increasing dose-levels (160, 400, 600, 900 and 1200 mg/kg) every 3 or 4 days. Anionic form BrHPP equilvalent to these doses are respectively: 96, 240, 360, 540 and 720 mg/kg. BrHPP was given as a solution after reconstitution in water for injection finally diluted in Ringer lactate under a dose volume of 4, 10 or 15 mL/kg.\nGroup 2 (one male and one female) were administered BrHPP i.v. daily at 900 mg/kg/day (540 mg/kg/day in anionic form BrHPP equivalent) for 2 weeks.\nThe animals were checked daily for mortality and clinical signs. Body weight was recorded pre-study and on the day of each administration in phase 1 or twice weekly throughout phase 2, and including on the day of necropsy for phase 2. Food consumption was estimated daily, starting at least 7 days pre-phase. Hematological, blood biochemical and/or peripheral blood lymphocyte subset analysis investigations were performed pre-study, on the day of each administration in phase 1, on day 7 in phase 2 and at the end of both phases. Electrocardiographic and blood pressure recordings were performed pre-study, on the day of each administration in phase 1 and on day 1 and at the end of treatment in phase 2. Blood, for determination of plasma levels of the test item, was sampled on days 1 and 14 in phase 2. On completion of each phase, animals were submitted to a complete macroscopic post-mortem examination and specified tissues preserved. In phase 2, selected body organs were weighed and microscopic examination of selected tissues was performed for all animals."}, "[4]": {"experiment": "Half life of the molecule in primate sera", "format": "in vitro ADME", "settings": "37° C.", "experimental": "In vitro, we and others (Lang, 1995) have shown that the activation of Vg9Vd2 cells occurs within minutes after the addition of the molecule. Two mechanisms may prevent the molecule to be active in vivo i) the likely rapid renal clearance of such a small molecule and ii) a degradation process in vivo. […] Nevertheless, the concentration of the molecule, injected by intravenous route in relatively high amount, should be maintained beyond the 20 nM EC50 for a significant time, if no additional, blood cell or organ related degradation process occurs in vivo."}, "[5]": {"experiment": "Two week repeated dose toxicity study in rats, i.v. BrHPP", "format": "in vivo, Sprague-Dawley rats", "experimental": "The objective of this GLP study was to evaluate the potential toxicity of BrHPP following daily i.v. administration in rats for two weeks. 116 Sprague-Dawley rats were allocated into four groups: one control group (Group 1) with 10 males and 10 females and three treatment groups (Groups 2 to 4) with 10 males and 10 females. Group 2, 3 and 4 were administered respectively 80, 150 and 300 mg/kg/day (respectively 48, 90 and 180 mg/kg in anionic form equivalent) of BrHPP. […] Satellite animals were allocated for toxico-kinetics purposes.\nBrHPP was administered daily by slow intravenous injection (0.4 mL/min) as a solution in sterile water for injection and Ringer lactate at the dose levels of 80, 150 or 300 mg/kg/day. The control group received the vehicle (together with 1% sodium to reach an osmolarity similar to the high-dose group dosage forms) under the same experimental conditions. A constant dosage-volume of 5 mL/kg was used.\nThe animals were checked daily for mortality and clinical signs. Body weight and food consumption were recorded twice a week. Opthalmologic examination was performed before and at the end of the treatment period. Blood samples for determination of levels of BrHPP were taken from satellite animals on Day 1 and at the end of the treatment period. Vaginal lavage was performed in females during pre-treatment and at the end of the treatment period for monitoring of estrous cycle. Hematological, blood biochemical and urinalysis investigations were performed on all principal animals at the end of week 2. On completion of the study, all animals were killed and subjected to a macroscopic post mortem examination and specified organs were weighed and preserved. Microscopic examination was performed on selected tissues from animals of the control and the 300 mg/kg/day groups."}},
  "data": [
    {"substance": "3-(bromomethyl)-3-butanol-1-yl-diphosphate [BrHPP]", "values": [
      {"measurement": "EC50", "setting": "[1]", "result": "~1", "unit": "nM"},
      {"measurement": "in vivo amplification of γδ cells", "setting": "[2]; 4 successive injections of 20 or 80 mg/kg Phosphostim, 4 or 8 weeks apart", "result": "repeated increases of γδ cells"},
      {"measurement": "γδ cell rate and absolute count in the periphery", "setting": "[2]; at least 3 successive injections, 8 weeks apart, 20 or 80 mg/kg, males", "result": "significant increases"},
      {"measurement": "γδ cell rate and absolute count", "setting": "[2]; at least 4 successive injections, 4 weeks apart, 20 mg/kg, males", "result": "detectable increases"},
      {"measurement": "macroscopic post-mortem examination", "setting": "[3]; Phase 1 or Phase 2", "result": "No relevant findings"},
      {"measurement": "lymphocyte count", "setting": "[3]; Phase 2, 900 mg/kg/day 2 weeks", "result": "increased lymphocyte count was noted in both animals"},
      {"measurement": "clinical signs", "setting": "[3]; both treatment phases", "result": "no relevant clinical signs were noted"},
      {"measurement": "blood pressure", "setting": "[3]; either phase", "result": "did not affect blood pressure"},
      {"measurement": "body weight evolution", "setting": "[3]; either phase", "result": "had no effect on the body weight evolution"},
      {"measurement": "food consumption", "setting": "[3]; either phase", "result": "unaffected"},
      {"measurement": "hematological or blood chemistry changes", "setting": "[3]; phase 1, 160-1200 mg/kg", "result": "No treatment related hematological or blood chemistry changes"},
      {"measurement": "mortality", "setting": "[3]; phase 1: 160-1200 mg/kg every 3 or 4 days, phase 2: 900 mg/kg/day 2 weeks", "result": "No unscheduled death occurred"},
      {"measurement": "absolute thymus weight", "setting": "[3]; phase 2, female", "result": "slightly lower absolute thymus weight"},
      {"measurement": "microscopic findings, female", "setting": "[3]; phase 2, female", "result": "Lymphoid depletion was seen in the thymus and mesenteric lymph node"},
      {"measurement": "microscopic findings, male", "setting": "[3]; phase 2, male", "result": "increase of follicular germinal center in the mesenteric lymph node"},
      {"measurement": "half life of the molecule in primate sera", "setting": "[4]", "result": "about one"},
      {"measurement": "microscopic examination, other organs and tissues", "setting": "[5]; 300 mg/kg/day", "result": "No relevant findings were seen in other organs and tissues"},
      {"measurement": "opthalmologic findings", "setting": "[5]; 300 mg/kg/day, end of treatment", "result": "No relevant opthalmologic findings"},
      {"measurement": "mortality", "setting": "[5]; 80, 150, 300 mg/kg/day i.v. two weeks", "result": "No unscheduled death occurred"},
      {"measurement": "clinical signs during dosing", "setting": "[5]; 150 and 300 mg/kg/day", "result": "Vocalization during dosing was noted on many occasions"},
      {"measurement": "microscopic examination, tail vein", "setting": "[5]; both control and BrHPP-treated, attributed to mechanical injury", "result": "slight changes were observed in the tail vein"},
      {"measurement": "macroscopic post-mortem examination", "setting": "[5]; end of treatment", "result": "No relevant findings were noted"},
      {"measurement": "organ weights", "setting": "[5]; end of treatment", "result": "No relevant differences in organ weights from controls"},
      {"measurement": "hematological, biochemical or urinary parameter", "setting": "[5]; end of week 2", "result": "No changes of toxicological significance"},
      {"measurement": "mean body weight gain", "setting": "[5]; females", "result": "Dose-related higher mean body weight gain"},
      {"measurement": "NOAEL in anionic form equivalent", "setting": "[5]; highest tested dose", "result": 180, "unit": "mg/kg"},
      {"measurement": "No Observed Adverse Effect Level (NOAEL)", "setting": "[5]; highest tested dose", "result": 300, "unit": "mg/kg/day"}
    ]}
  ]
}
